In patent US20210283058A1, “METHOD FOR PRODUCING SUSTAINED-RELEASE DRUG, AND SUSTAINED-RELEASE DRUG” (GUNZE LIMITED, priority 2016, published 2021):

Test: Sustained release evaluated by weight loss curves from TG/DTA
Type: physicochemical
Settings: conditions a): 30° C. to 40° C. at 5° C./min, then 40° C. for 30 minutes
Description: The sustained release of the sustained-release drug obtained in Example 4 was evaluated by the following method. Weight loss curves were drawn from TG curves obtained using a thermogravimetry/differential thermal analysis (TG/DTA) apparatus (PerkinElmer, STA 6000) under the following conditions: conditions a) the sustained-release drug is heated from 30° C. to 40° C. at 5° C./min, followed by keeping the drug isothermally at 40° C. for 30 minutes; and conditions b) the sustained-release drug is heated from 30° C. to 50° C. at 5° C./min, followed by keeping the drug isothermally at 50° C. for 30 minutes. FIG. 6(a) (conditions a) and FIG. 6(b) (conditions b) show the obtained weight loss curves.

With `CC(C)[C@@H]1CC[C@@H](C)C[C@H]1O` [L-menthol] as the compound, how does the “release of medicinal ingredient (weight loss curve)” value read?
The value was “significant volatility”.
